Results published in patent publication US6426222B1, “Method for inducing osteoblast differentiation of human extramedullary adipose tissue cells” (Bio Holdings International Limited, priority 1997, dated 2002).

Experiments:
[1] = system: human extramedullary adipose tissue cells; test: Alkaline phosphatase activity of treated cultures (para-nitrophenol phosphate substrate); format: cell-based; settings: dexamethasone 10^-7 M
Protocol: Adipose tissue biopsies were taken during plastic surgery of the abdomen on healthy patients, of ages of from 25 to 50.
The tissues taken were sliced thinly into small fragments and digested for 90 minutes with collagenase (2 mg/ml) in a Krebs Ringer buffer at 37° C. Filtering was performed on a screen having a pore size of 100 μm, the filtrate was recovered, and centrifuged at 1000 revolutions per minute (rpm) for 5 min. The supernatant was removed and the pellet was washed several times in Krebs Ringer buffer. The washing and centrifuging steps were repeated several times and on each occasion the supernatant containing mature adipocytes was removed. The resulting cells were suspended in DME/F12 (Sigma Chemical Co., St. Louis, Mo. USA; reference D-6905) culture medium containing 10% fetal calf serum, 100 μg/ml streptomycin, and 100 U/ml penicillin.
Polystyrene culture dishes (“tissue culture flasks” sold by Becton-Dickinson under the references 3013, 3028, and 3084) were inoculated with the resulting cell suspension and incubation was performed at 37° C. under an atmosphere of moist air with 5% additional CO2. […]
The quantity of para-nitrophenol formed upon hydrolysis of the substrate was determined by measuring the absorbance at 410 nm, which was converted into nanomoles of enzyme using a calibration curve established on the basis of known concentrations of para-nitrophenol.

[2] = target: placenta type alkaline phosphatase (Homo sapiens, UniProt P05187); settings: read-out: levamisole concentration for 50% inhibition of activity, placenta type alkaline phosphatase; cited from earlier work
Sequence of placenta type alkaline phosphatase (P05187 23-506 limits assumed): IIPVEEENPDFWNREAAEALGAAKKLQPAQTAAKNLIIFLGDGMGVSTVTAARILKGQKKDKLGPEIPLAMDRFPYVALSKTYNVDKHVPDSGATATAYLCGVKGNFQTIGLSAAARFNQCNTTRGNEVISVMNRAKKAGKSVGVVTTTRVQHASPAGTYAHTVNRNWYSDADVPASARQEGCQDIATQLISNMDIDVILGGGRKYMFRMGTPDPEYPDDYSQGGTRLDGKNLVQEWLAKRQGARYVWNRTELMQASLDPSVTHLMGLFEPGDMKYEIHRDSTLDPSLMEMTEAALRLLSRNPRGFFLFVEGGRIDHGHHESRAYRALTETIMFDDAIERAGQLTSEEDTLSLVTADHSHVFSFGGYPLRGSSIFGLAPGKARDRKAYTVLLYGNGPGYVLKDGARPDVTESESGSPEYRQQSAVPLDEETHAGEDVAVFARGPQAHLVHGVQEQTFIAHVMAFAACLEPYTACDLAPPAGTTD

[3] = target: intestine type alkaline phosphatase (Homo sapiens, UniProt P09923); settings: read-out: levamisole concentration for 50% inhibition of activity, intestine type alkaline phosphatase; cited from earlier work
Sequence of intestine type alkaline phosphatase (P09923 20-503 limits assumed): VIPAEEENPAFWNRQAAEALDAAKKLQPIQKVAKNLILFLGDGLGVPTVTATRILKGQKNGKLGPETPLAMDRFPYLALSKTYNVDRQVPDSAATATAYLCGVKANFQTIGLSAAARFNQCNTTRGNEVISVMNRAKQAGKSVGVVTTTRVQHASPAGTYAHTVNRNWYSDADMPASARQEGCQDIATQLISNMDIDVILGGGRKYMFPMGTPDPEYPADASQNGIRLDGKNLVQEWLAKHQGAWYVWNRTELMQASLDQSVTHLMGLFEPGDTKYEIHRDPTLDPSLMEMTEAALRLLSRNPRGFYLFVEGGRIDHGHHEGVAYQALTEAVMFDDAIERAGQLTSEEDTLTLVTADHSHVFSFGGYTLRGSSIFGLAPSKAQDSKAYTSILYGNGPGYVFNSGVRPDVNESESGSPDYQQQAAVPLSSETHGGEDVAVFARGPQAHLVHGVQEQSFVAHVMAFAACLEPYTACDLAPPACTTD

C[C@@H]1C[C@H]2[C@@H]3CCC4=CC(=O)C=C[C@]4(C)[C@@]3(F)[C@@H](O)C[C@]2(C)[C@@]1(O)C(=O)CO [dexamethasone]
alkaline phosphatase activity, observed in nearly all cases [1]: not less than 200 nanomoles of para-nitrophenol/30 min/well | alkaline phosphatase activity, sometimes as high as [1]: ≤ 700 nanomoles/30 min/well

c1ccc([C@H]2CN3CCSC3=N2)cc1 [levamisole]
IC50 [2]: ~1000 µM | IC50 [3]: ~3000 µM
